Target: T1, CXCR2 (Homo sapiens, UniProt P25025)
T1 construct: endogenous in cells; host or cells: neutrophils (isolated primary cells)
T1 sequence (P25025 1-360): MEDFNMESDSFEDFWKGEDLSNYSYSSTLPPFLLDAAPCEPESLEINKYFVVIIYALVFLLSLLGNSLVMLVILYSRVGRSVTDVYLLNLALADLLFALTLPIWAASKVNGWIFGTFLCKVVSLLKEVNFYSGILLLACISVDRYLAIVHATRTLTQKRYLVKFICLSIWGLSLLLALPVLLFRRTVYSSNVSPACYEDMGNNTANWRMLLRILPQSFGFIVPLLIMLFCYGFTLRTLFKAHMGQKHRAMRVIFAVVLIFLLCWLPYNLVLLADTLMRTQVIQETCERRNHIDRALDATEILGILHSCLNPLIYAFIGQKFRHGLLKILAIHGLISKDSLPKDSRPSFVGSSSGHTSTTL
Assay: Sequential calcium flux in neutrophils to IL-8 after SB225002 pretreatment
Type: cell-based
Conditions: 1 pM SB225002; IL-8 1.2 μM and 1.2 μM or 600 nM and 1.2 μM; p<0.05
Method: Calcium flux in neutrophils in response to IL-8 was measured as previously described (Mahon M. J., et al. 2004 J Biol Chem 279:23550-8). Briefly, isolated cells (˜10^7/ml) were transferred into a balanced salt solution (127 mM NaCl, 3.8 mM KCl, 1.2 mM KH2PO4, 1.2 mM CaCl2, 0.9 mM MgCl2, 5 mM glucose, and 10 mM HEPES, pH 7.4), incubated for 45 min at room temperature with 1.25 μM Fura-2 acetoxymethyl ester (Molecular Probes, Eugene, Oreg.), washed with the balanced salt solution, and unloaded for 15 min at room temperature. […] Calcium flux in response to indicated concentrations of IL-8 (Akahoshi T., et al. 1994 Lymphokine Cytokine Res 13:113-6) was measured by fluorescence of cells excited at 340 and 380 nm using a PTI Deltascan dual-wavelength fluorimeter (Photon Technologies Incorporated, Lawrenceville, N.J.), observed through a Nikon Diaphot 200 microscope (Melville, N.Y.) and Sensys charge-coupled device camera (Photometrics, Ltd., Tucson, Ariz.), and analyzed using the Poenie-Tsien ratio with Imagemaster 2 software (Photon Technologies Incorporated). Signaling responses to IL-8 at designated concentrations were calibrated against maximal calcium flux as determined by treatment with 5 μM ionomycin (Sigma). CXCR2 expression on neutrophils pre- and post-exposure to 120 nM, 1.2 μM and 2.4 μM IL-8 was determined using PE-labelled anti-CXCR2 IgGl antibody (R & D systems). […]

O=C(Nc1ccc([N+](=O)[O-])cc1O)Nc1ccccc1Br [SB225002] was tested, and the “sequential peaks of calcium flux following IL-8 stimulation” value was “significantly reduced”.

Source: patent publication US10406217B2, “Antifugetactic agents for the treatment of cancers” (The General Hospital Corporation, priority 2004, dated 2019)
